Experimental data from US20120255051A1, “HERBICIDE TOLERANT PLANTS” (priority 2009, published 2012).

System: Brassica plants comprising mutant AHAS alleles
Assay: Field trial, pre-planting treatment (0, 10, 20, 30 g a.i./ha), two locations in Canada: ERG, EST1, EST2, PPTOX, VIG1, VIG2, VIG3 scores
Type: in vivo, Brassica napus
Details: for establishment (EST1) score Av, 14 days after sowing / emergence (ERG) score Av: AHAS1 WT
Description: Tests were set up and conducted to asses the growth and performance of plants comprising AHAS full knock-out alleles, and to further analyze the correlation between the presence of full knockout and missense AHAS genes in Brassica plants and plant growth and herbicide tolerance of the Brassica plants in the field. To this end, the Brassica plants identified in Example 1 and 2 were backcrossed two times with an elite parent line, and subsequently selfed twice to obtain homozygous plants (BC2S2). Plants were grown as row plots in a split plot design with three replicates (main plots=herbicide treatments, subplots=genotypes) at two locations in Canada. Treatment pre-planting was carried out on the soil about two days before sowing with a dose of 0 (treatment A), 10 (treatment B), 20 (treatment C) or 30 (treatment D) g a.i./ha of thiencarbazone methyl. Herbicide tolerance was measured by scoring for different parameters. The parameter emergence (ERG) was scored at the cotyledon stage on a scale 1-9, where 1 means late emergence and 9 means early emergence. Establishment was scored 14 days after sowing (EST1) and 21 days after sowing (EST2). Scores were from 1 to 9, where 1 is the worst establishment (least plants that emerged), and 9 is the best establishment (most plants emerged). Phytotoxicity (PPTOX) was determined after establishment. Plants were evaluated on a scale of 1 to 9, where 1=completely yellowing, 5=50% of plant is yellow and 9=no yellowing. The vigor scores (see above) were determined at 1-2 leaf stage (VIG1), 7 days after VIG1 (VIG2) and 14 days after VIG1 (VIG3). The average values (Av) and standard deviations (SD) of the scores for the different parameters are represented in Table 7a-g.
Further, the contribution of the knock-out allele to herbicide tolerance conferred by the missense allele was calculated. First, the scores were corrected for a possible effect of the growth per se, independent of herbicide treatment. To this end, the scores for treatments B, C and D were divided by the scores for treatment A for the same genotype and for the same parameter (corrected herbicide tolerance scores). Next, the effect of the knock-out allele to these corrected herbicide tolerance scores obtained by the missense allele was calculated. Therefore, the corrected herbicide tolerance scores for the missense—knock-out allele combination was divided by the corrected herbicide tolerance scores for the missense allele—wild-type combination. In case the knock-out allele has no effect on herbicide tolerance conferred by the missense allele, this ratio should be 1. In case the knock-out allele positively contributes to the herbicide tolerance conferred by the missense allele, this ratio should be higher than 1. The results for the contribution of the knock-out allele to herbicide tolerance conferred by the missense allele as calculated above are shown in table 8.

[1] = AHAS3 HETO111 (HETO108+HETO111 series), treatment B 10 g a.i./ha pre-planting, Location B
[2] = AHAS3 HETO111 (HETO108+HETO111 series), treatment C 20 g a.i./ha pre-planting, Location A
[3] = AHAS3 HETO111 (HETO108+HETO111 series), treatment C 20 g a.i./ha pre-planting, Location B
[4] = AHAS3 HETO111 (HETO108+HETO111 series), treatment D 30 g a.i./ha pre-planting, Location A
[5] = AHAS3 HETO111 (HETO108+HETO111 series), treatment D 30 g a.i./ha pre-planting, Location B
[6] = AHAS3 HETO111 (HETO112+HETO111 series), treatment B 10 g a.i./ha pre-planting, Location A
[7] = AHAS3 HETO111 (HETO112+HETO111 series), treatment B 10 g a.i./ha pre-planting, Location B
[8] = AHAS3 HETO111 (HETO112+HETO111 series), treatment C 20 g a.i./ha pre-planting, Location A
[9] = AHAS3 HETO111 (HETO112+HETO111 series), treatment C 20 g a.i./ha pre-planting, Location B
[10] = AHAS3 HETO111 (HETO112+HETO111 series), treatment D 30 g a.i./ha pre-planting, Location A
[11] = AHAS3 HETO111 (HETO112+HETO111 series), treatment D 30 g a.i./ha pre-planting, Location B
[12] = AHAS3 WT (HETO108+HETO104 series), treatment B 10 g a.i./ha pre-planting, Location A
[13] = AHAS3 WT (HETO108+HETO104 series), treatment B 10 g a.i./ha pre-planting, Location B
[14] = AHAS3 WT (HETO108+HETO104 series), treatment C 20 g a.i./ha pre-planting, Location A
[15] = AHAS3 WT (HETO108+HETO104 series), treatment C 20 g a.i./ha pre-planting, Location B
[16] = AHAS3 WT (HETO108+HETO104 series), treatment D 30 g a.i./ha pre-planting, Location A
[17] = AHAS3 WT (HETO108+HETO104 series), treatment D 30 g a.i./ha pre-planting, Location B
[18] = AHAS3 WT (HETO108+HETO111 series), treatment B 10 g a.i./ha pre-planting, Location A
[19] = AHAS3 WT (HETO108+HETO111 series), treatment B 10 g a.i./ha pre-planting, Location B
[20] = AHAS3 WT (HETO108+HETO111 series), treatment C 20 g a.i./ha pre-planting, Location A
[21] = AHAS3 WT (HETO108+HETO111 series), treatment C 20 g a.i./ha pre-planting, Location B
[22] = AHAS3 WT (HETO108+HETO111 series), treatment D 30 g a.i./ha pre-planting, Location A
[23] = AHAS3 WT (HETO108+HETO111 series), treatment D 30 g a.i./ha pre-planting, Location B
[24] = AHAS3 WT (HETO112+HETO111 series), treatment B 10 g a.i./ha pre-planting, Location A
[25] = AHAS3 WT (HETO112+HETO111 series), treatment B 10 g a.i./ha pre-planting, Location B
[26] = AHAS3 WT (HETO112+HETO111 series), treatment C 20 g a.i./ha pre-planting, Location A
[27] = AHAS3 WT (HETO112+HETO111 series), treatment C 20 g a.i./ha pre-planting, Location B
[28] = AHAS3 WT (HETO112+HETO111 series), treatment D 30 g a.i./ha pre-planting, Location A
[29] = AHAS3 WT (HETO112+HETO111 series), treatment D 30 g a.i./ha pre-planting, Location B

SMILES: COC(=O)c1csc(C)c1S(=O)(=O)NC(=O)n1nc(OC)n(C)c1=O [thiencarbazone-methyl, methyl 4-[(4,5-dihydro-3-methoxy-4-methyl-5-oxo-1H-1,2,4-triazol-1-yl)carbonylsulfamoyl]-5-methylthiophene-3-carboxylate]
- establishment (EST1) score Av, 14 days after sowing (AHAS3 HETO111 (HETO108+HETO111 series), treatment B 10 g a.i./ha pre-planting, Location A): 5.00
- emergence (ERG) score Av [1]: 5.00
- establishment (EST1) score Av, 14 days after sowing [1]: 6.00
- emergence (ERG) score Av [2]: 4.67
- establishment (EST1) score Av, 14 days after sowing [2]: 5.33
- emergence (ERG) score Av [3]: 4.00
- establishment (EST1) score Av, 14 days after sowing [3]: 4.67
- emergence (ERG) score Av [4]: 4.33
- establishment (EST1) score Av, 14 days after sowing [4]: 4.33
- emergence (ERG) score Av [5]: 4.00
- establishment (EST1) score Av, 14 days after sowing [5]: 4.33
- emergence (ERG) score Av [6]: 5.33
- establishment (EST1) score Av, 14 days after sowing [6]: 5.67
- emergence (ERG) score Av [7]: 4.67
- establishment (EST1) score Av, 14 days after sowing [7]: 6.00
- emergence (ERG) score Av [8]: 4.33
- establishment (EST1) score Av, 14 days after sowing [8]: 4.67
- emergence (ERG) score Av [9]: 4.67
- establishment (EST1) score Av, 14 days after sowing [9]: 4.67
- emergence (ERG) score Av [10]: 4.33
- establishment (EST1) score Av, 14 days after sowing [10]: 4.33
- emergence (ERG) score Av [11]: 3.67
- establishment (EST1) score Av, 14 days after sowing [11]: 4.00
- emergence (ERG) score Av [12]: 1.00
- establishment (EST1) score Av, 14 days after sowing [12]: 1.00
- emergence (ERG) score Av [13]: 3.00
- establishment (EST1) score Av, 14 days after sowing [13]: 4.33
- emergence (ERG) score Av [14]: 1.00
- establishment (EST1) score Av, 14 days after sowing [14]: 1.00
- emergence (ERG) score Av [15]: 1.67
- establishment (EST1) score Av, 14 days after sowing [15]: 3.67
- emergence (ERG) score Av [16]: 1.00
- establishment (EST1) score Av, 14 days after sowing [16]: 1.00
- emergence (ERG) score Av [17]: 1.33
- establishment (EST1) score Av, 14 days after sowing [17]: 1.33
- emergence (ERG) score Av [18]: 2.33
- establishment (EST1) score Av, 14 days after sowing [18]: 2.67
- emergence (ERG) score Av [19]: 3.33
- establishment (EST1) score Av, 14 days after sowing [19]: 4.33
- emergence (ERG) score Av [20]: 1.00
- establishment (EST1) score Av, 14 days after sowing [20]: 1.00
- emergence (ERG) score Av [21]: 2.33
- establishment (EST1) score Av, 14 days after sowing [21]: 4.00
- emergence (ERG) score Av [22]: 1.00
- establishment (EST1) score Av, 14 days after sowing [22]: 1.00
- emergence (ERG) score Av [23]: 1.33
- establishment (EST1) score Av, 14 days after sowing [23]: 1.00
- emergence (ERG) score Av [24]: 1.00
- establishment (EST1) score Av, 14 days after sowing [24]: 1.00
- emergence (ERG) score Av [25]: 3.67
- establishment (EST1) score Av, 14 days after sowing [25]: 5.00
- emergence (ERG) score Av [26]: 1.00
- establishment (EST1) score Av, 14 days after sowing [26]: 1.00
- emergence (ERG) score Av [27]: 1.67
- establishment (EST1) score Av, 14 days after sowing [27]: 3.33
- emergence (ERG) score Av [28]: 1.00
- establishment (EST1) score Av, 14 days after sowing [28]: 1.00
- emergence (ERG) score Av [29]: 1.33
- establishment (EST1) score Av, 14 days after sowing [29]: 1.67
- establishment (EST2) score, Av (AHAS1 WT/AHAS3 HETO104, 10 g a.i./ha pre-planting (B), Location A): 2.33
